{"source": "patent US8586307B2", "about": "“Methods for diagnosing epigenetic, transgenerational effects of environmental toxicants on mammalian germ-lines and treating associated diseases” (priority 2005, dated 2013)", "key": {"[1]": {"assay": "General observations (body weight, litter size, serum testosterone, other tissues)", "format": "in vivo, rat", "description": "In Vivo Procedures: Gestating outbred Sprague-Dawley and inbred Fisher mother rats from timed, pregnant colonies housed at the Washington State University Vivarium, were given intraperitoneal injections of vinclozolin (100 mg/kg/day) and methoxychlor (200 mg/kg/day) from embryonic day 8-15 (E8-E15, sperm positive vaginal smear date=E0) of gestation (F0 generation) as previously described. Gestating mothers administered vehicle, sesame oil or DMSO, served as controls. At least 6 lines (individual F0 injected females) were generated for controls and treated groups for these analyses. Male rats from control and treated groups were collected at P60-P180 for analyses. F1 treated males were bred to F1 treated females to generate the F2 treated generation and F2 treated males were bred to F2 treated females to generate the F3 generation and the F3 were bred in the same manner to generate the F4 generation. Rats for the control groups were bred in the same manner for all the generations. No inbreeding or sibling crosses were generated. The outcross group (VOC) were generated by breeding the F2 treated males with wild-type females (total of 6 litters) and reverse outcross group (RVOC) was generated by breeding F2 treated females with wild-type males (total of 3 litters). Control (n=4) and treated (n=4) male offspring from the F1 generation from Fisher strain rats were collected at P6 for DNA methylation analysis, see below. All procedures have been approved by the Washington State University Animal Care Committee. The number of animals used for replicates in the experiments (i.e. n value) are as follows for vinclozolin treatment: F1 (control 11, treated 12); F2 (control 19, treated 30); F3 (control 19, treated 26); F4 (control 10, treated 17); VOC (18); and RVOC (6). For methoxychlor treatment animal number was for F1 (control 6, treated 9) and F2 (control 16, treated 22)."}, "F1 generation testis": {"system": "F1 generation testis", "details": "cited from earlier work"}}}
{"smiles": "COc1ccc(C(c2ccc(OC)cc2)C(Cl)(Cl)Cl)cc1", "note": "[methoxychlor]", "values": [{"measurement": "serum testosterone levels", "setting": "[1]; all the animals", "value": "normal"}, {"measurement": "effect on total body weight", "setting": "[1]; endocrine disruptor treatment, F1", "value": "no effect"}, {"measurement": "gross abnormality in any other tissues examined", "setting": "[1]; rat, in vivo", "value": "No gross abnormality"}, {"measurement": "adult F1 generation testis phenotype", "setting": "F1 generation testis; gestating mother exposed E8-E15, 100 or 200 mg/kg i.p. daily", "value": "reduced spermatogenic capacity, increased spermatogenic cell apoptosis and decreased sperm number and motility"}, {"measurement": "effect on the F1 generation testis", "setting": "F1 generation testis; transient exposure E15-E20", "value": "no effect"}]}
